Data from US12150447B2, “Plant growth regulator” (University of Washington, priority 2017, dated 2024).

What was measured:
[1] = biological target: T1, mutant auxin receptor (TIR1 F79G) (Arabidopsis thaliana, UniProt Q570C0, F79G); assay: Evaluation of binding to auxin receptor (yeast two-hybrid assay), mutant TIR1 F79G; conditions: for mut TIR: minimum concentration of the test compound in which the well turns blue: yeast EGY48, LacZ reporter, X-gal, 30° C. for 3 days, TIR1 F79G with AUX/IAA protein
T1 construct: expressed in transfected cells; host or cells: Saccharomyces cerevisiae strain EGY48
Description: (§1) Test Example 1: Evaluation of Binding to Auxin Receptor (Yeast Two-Hybrid Assay
(§2) Specifically, the inventors set up the assay in the following manner.
Yeast strain EGY48 was transformed into a plasmid (pSH18-34) containing a LacZ expression cassette (LexA-operon: LacZ reporter) that is transcriptionally regulated by the LexA-operon, a plasmid derived from pGLex313 containing an expression cassette of LexA-DNA-binding domain fusion protein A (the wild-type auxin receptor: SEQ ID NO. 1, or mutant auxin receptor (TIR1 F79G) where the amino acid residue 79 (phenylalanine) in the wild-type is mutated to a glycine: SEQ ID NO. 2), and a plasmid derived from pJG4-5 containing an expression cassette of B42 transcription activator fusion protein B (AUX/IAA protein: SEQ ID NO: 3). The transformant was cultured at 30° C. on an agar plate made of yeast growth medium (minimal SD base and -His/-Trp/-Ura dropout supplement). The colonies were picked up and incubated overnight in liquid SD/-His/-Trp/-Ura medium at 30° C. Afterwards, the medium was replaced with a liquid medium composed of minimal SD/Gal/Raf base, -His/-Trp/-Ura dropout supplement, 50 mM Na-phosphate buffer (pH 7.0), […] X-gal, and various concentrations of test compounds. After incubation at 30° C. for 3 days, the medium containing yeast was transferred to a white 96-well plate (flat bottom) and observed. The lower the concentration of the test compound when blue color appears, the higher the binding between the test compound and the auxin receptor (wild type or mutant) is. Conversely, higher the concentration of test compound when the blue color appears for the first time, the lower the binding between the test compound and the auxin receptor (wild type or mutant).
(§3) In Table 1, the concentration of “wt TIR” indicates the minimum concentration of the test compound in which the well turns blue when the wild type auxin receptor is used, whereas the concentration of “mut” indicates the minimum concentration of the test compound in which the well turns blue when the mutant auxin receptor (TIR1 F79G) is used.

[2] = biological target: T2, wild-type auxin receptor (TIR1) (Arabidopsis thaliana, UniProt Q570C0); assay: Evaluation of binding to auxin receptor (yeast two-hybrid assay), wild-type receptor; conditions: yeast EGY48, LacZ reporter, X-gal, 30° C. for 3 days; wild type auxin receptor with AUX/IAA protein
T2 construct: expressed in transfected cells; host or cells: Saccharomyces cerevisiae strain EGY48
T2 sequence (Q570C0 1-594): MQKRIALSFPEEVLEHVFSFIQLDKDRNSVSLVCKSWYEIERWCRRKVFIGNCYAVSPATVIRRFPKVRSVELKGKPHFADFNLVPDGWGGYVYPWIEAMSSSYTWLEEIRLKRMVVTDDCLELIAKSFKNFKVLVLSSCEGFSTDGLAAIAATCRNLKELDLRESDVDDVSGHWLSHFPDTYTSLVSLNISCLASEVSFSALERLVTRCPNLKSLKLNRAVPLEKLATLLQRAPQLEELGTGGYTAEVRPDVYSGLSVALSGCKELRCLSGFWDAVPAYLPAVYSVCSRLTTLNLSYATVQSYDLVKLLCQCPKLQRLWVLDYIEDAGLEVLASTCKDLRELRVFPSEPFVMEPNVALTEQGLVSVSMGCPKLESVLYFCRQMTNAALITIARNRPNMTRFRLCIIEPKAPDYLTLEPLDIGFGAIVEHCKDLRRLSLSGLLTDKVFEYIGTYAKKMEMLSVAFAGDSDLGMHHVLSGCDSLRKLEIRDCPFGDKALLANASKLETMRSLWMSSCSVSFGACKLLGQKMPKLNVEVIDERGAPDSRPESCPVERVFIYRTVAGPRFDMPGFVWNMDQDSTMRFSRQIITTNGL
T2 sequence (Q38822 1-93 partner limits assumed): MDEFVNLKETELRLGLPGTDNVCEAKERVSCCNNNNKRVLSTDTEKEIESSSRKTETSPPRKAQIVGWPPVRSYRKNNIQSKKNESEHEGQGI
Procedure: as §1, §2
The transformant was cultured at 30° C. on an agar plate made of yeast growth medium (minimal SD base and -His/-Trp/-Ura dropout supplement). The colonies were picked up and incubated overnight in liquid SD/-His/-Trp/-Ura medium at 30° C. Afterwards, the medium was replaced with a liquid medium composed of minimal SD/Gal/Raf base, -His/-Trp/-Ura dropout supplement, 50 mM Na-phosphate buffer (pH 7.0), […] X-gal, and various concentrations of test compounds. After incubation at 30° C. for 3 days, the medium containing yeast was transferred to a white 96-well plate (flat bottom) and observed.
as §3

T1 sequence (Q570C0 whole entry F79G, one chain of several): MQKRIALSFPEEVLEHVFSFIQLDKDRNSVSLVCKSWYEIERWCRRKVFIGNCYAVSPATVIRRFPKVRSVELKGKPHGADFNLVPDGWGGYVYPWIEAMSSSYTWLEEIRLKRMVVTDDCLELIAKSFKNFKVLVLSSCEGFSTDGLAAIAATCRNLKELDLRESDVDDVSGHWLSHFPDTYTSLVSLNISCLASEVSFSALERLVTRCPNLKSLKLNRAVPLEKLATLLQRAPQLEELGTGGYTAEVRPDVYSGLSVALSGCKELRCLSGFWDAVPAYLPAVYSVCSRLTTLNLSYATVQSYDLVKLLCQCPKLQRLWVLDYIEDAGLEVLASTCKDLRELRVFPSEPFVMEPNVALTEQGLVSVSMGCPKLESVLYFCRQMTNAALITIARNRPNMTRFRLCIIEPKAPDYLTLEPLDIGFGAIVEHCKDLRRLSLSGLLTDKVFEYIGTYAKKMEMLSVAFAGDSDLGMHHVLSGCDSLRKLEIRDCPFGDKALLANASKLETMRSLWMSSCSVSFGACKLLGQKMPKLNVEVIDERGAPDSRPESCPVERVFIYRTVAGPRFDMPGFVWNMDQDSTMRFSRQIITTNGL

O=C(O)Cc1c[nH]c2ccc(-c3cc4ccccc4s3)cc12 [Compound 14, 2-(5-(Benzo[b]thiophen-2-yl)-1H-indol-3-yl)acetic acid]
mut TIR: minimum concentration of the test compound in which the well turns blue [1]: 0.01 µM
wt TIR: minimum concentration of the test compound in which the well turns blue [2]: >1 µM

O=C(O)Cc1c[nH]c2cc(-c3ccc4c(c3)OCO4)ccc12 [MK-247, 2-(6-(benzo[d][1,3]dioxol-5-yl)-1H-indol-3-yl)acetic acid]
mut TIR: minimum concentration of the test compound in which the well turns blue [1]: 0.1 µM
wt TIR: minimum concentration of the test compound in which the well turns blue [2]: 10 µM

O=C(O)Cc1c[nH]c2ccc(-c3ccc4ccccc4c3)cc12 [Example 27D, 5-(2-naphthyl)-indole-3-acetic acid]
mut TIR: minimum concentration of the test compound in which the well turns blue [1]: 0.1 µM
wt TIR: minimum concentration of the test compound in which the well turns blue [2]: 10 µM

Cc1ccccc1-c1ccc2[nH]cc(CC(=O)O)c2c1 [MK-189, 2-(5-(o-tolyl)-1H-indol-3-yl)acetic acid]
mut TIR: minimum concentration of the test compound in which the well turns blue [1]: 0.1 µM
wt TIR: minimum concentration of the test compound in which the well turns blue [2]: 10 µM

COc1ccccc1-c1ccc2[nH]cc(CC(=O)O)c2c1 [Example 27A, 5-(2-methoxyphenyl)-indole-3-acetic acid]
mut TIR: minimum concentration of the test compound in which the well turns blue [1]: 10 µM
wt TIR: minimum concentration of the test compound in which the well turns blue [2]: 100 µM

CCOc1cccc(-c2ccc3[nH]cc(CC(=O)O)c3c2)c1 [MK-211, 2-(5-(3-ethoxyphenyl)-1H-indol-3-yl)acetic acid]
mut TIR: minimum concentration of the test compound in which the well turns blue [1]: 10 µM
wt TIR: minimum concentration of the test compound in which the well turns blue [2]: 100 µM

COc1cccc(-c2ccc3[nH]cc(CC(=O)O)c3c2)c1 [Example 27B, 5-(3-methoxyphenyl)-indole-3-acetic acid]
mut TIR: minimum concentration of the test compound in which the well turns blue [1]: 1 µM
wt TIR: minimum concentration of the test compound in which the well turns blue [2]: 100 µM

Cc1ccc(COc2ccc3[nH]cc(CC(=O)O)c3c2)cc1 [MK-350, 2-(5-((4-methylbenzyl)oxy)-1H-indol-3-yl)acetic acid]
mut TIR: minimum concentration of the test compound in which the well turns blue [1]: 100 µM
wt TIR: minimum concentration of the test compound in which the well turns blue [2]: >100 µM

O=C(O)Cc1c[nH]c2ccc(-c3cc(Cl)ccc3Cl)cc12 [MK-308, 2-(5-(2,5-dichlorophenyl)-1H-indol-3-yl)acetic acid]
mut TIR: minimum concentration of the test compound in which the well turns blue [1]: 10 µM
wt TIR: minimum concentration of the test compound in which the well turns blue [2]: 100 µM

CCCCCCCOc1ccc2[nH]cc(CC(=O)O)c2c1 [MK-323, 2-(5-(heptyloxy)-1H-indol-3-yl)acetic acid]
mut TIR: minimum concentration of the test compound in which the well turns blue [1]: 10 µM
wt TIR: minimum concentration of the test compound in which the well turns blue [2]: 100 µM

CC(C)(C)c1ccc(-c2ccc3[nH]cc(CC(=O)O)c3c2)cc1 [MK-198, 2-(5-(4-(tert-butyl)phenyl)-1H-indol-3-yl) acetic acid]
mut TIR: minimum concentration of the test compound in which the well turns blue [1]: 10 µM
wt TIR: minimum concentration of the test compound in which the well turns blue [2]: 100 µM

Cc1cc(-c2ccc3[nH]cc(CC(=O)O)c3c2)ccc1F [MK-213, 2-(5-(4-fluoro-3-methylphenyl)-1H-indol-3-yl)acetic acid]
mut TIR: minimum concentration of the test compound in which the well turns blue [1]: 0.1 µM
wt TIR: minimum concentration of the test compound in which the well turns blue [2]: 10 µM

O=C(O)Cc1c[nH]c2cc(-c3ccccc3-c3ccccc3)ccc12 [MK-232, 2-(6-([1,1′-biphenyl]-2-yl)-1H-indol-3-yl)acetic acid]
mut TIR: minimum concentration of the test compound in which the well turns blue [1]: 10 µM
wt TIR: minimum concentration of the test compound in which the well turns blue [2]: 100 µM

O=C(O)Cc1c[nH]c2cc(-c3cccc(Oc4ccccc4)c3)ccc12 [MK-248, 2-(6-(3-phenoxyphenyl)-1H-indol-3-yl)acetic acid]
mut TIR: minimum concentration of the test compound in which the well turns blue [1]: 0.1 µM
wt TIR: minimum concentration of the test compound in which the well turns blue [2]: 10 µM

O=C(O)Cc1c[nH]c2ccc(-c3ccc(F)c(Cl)c3)cc12 [MK-255, 2-(5-(3-chloro-4-fluorophenyl)-1H-indol-3-yl)acetic acid]
mut TIR: minimum concentration of the test compound in which the well turns blue [1]: 1 µM
wt TIR: minimum concentration of the test compound in which the well turns blue [2]: 100 µM

O=C(O)Cc1c[nH]c2ccc(-c3ccc4c(c3)OCO4)cc12 [MK-209, 2-(5-(benzo[d][1,3]dioxol-5-yl)-1H-indol-3-yl) acetic acid]
mut TIR: minimum concentration of the test compound in which the well turns blue [1]: 0.1 µM
wt TIR: minimum concentration of the test compound in which the well turns blue [2]: 10 µM

Cc1ccc(-c2ccc3[nH]cc(CC(=O)O)c3c2)cc1C [MK-230, 2-(5-(3,4-dimethylphenyl)-1H-indol-3-yl)acetic acid]
mut TIR: minimum concentration of the test compound in which the well turns blue [1]: 0.1 µM
wt TIR: minimum concentration of the test compound in which the well turns blue [2]: 10 µM

Cc1cccc(-c2ccc3c(CC(=O)O)c[nH]c3c2)c1 [MK-245, 2-(6-(m-tolyl)-1H-indol-3-yl)acetic acid]
mut TIR: minimum concentration of the test compound in which the well turns blue [1]: 0.1 µM
wt TIR: minimum concentration of the test compound in which the well turns blue [2]: 10 µM

O=C(O)Cc1c[nH]c2ccc(OCC3CCCCC3)cc12 [MK-333, 2-(5-(cyclohexylmethoxy)-1H-indol-3-yl)acetic acid]
mut TIR: minimum concentration of the test compound in which the well turns blue [1]: 0.1 µM
wt TIR: minimum concentration of the test compound in which the well turns blue [2]: 100 µM

O=C(O)Cc1c[nH]c2ccc(-c3ccccc3)cc12 [Example 42A, 5-(2-Phenyl)-indole-3-acetic acid]
mut TIR: minimum concentration of the test compound in which the well turns blue [1]: 0.01 µM
wt TIR: minimum concentration of the test compound in which the well turns blue [2]: 1 µM

Cc1ccc(C)c(-c2ccc3[nH]cc(CC(=O)O)c3c2)c1 [MK-221, 2-(5-(2,5-dimethylphenyl)-1H-indol-3-yl)acetic acid]
mut TIR: minimum concentration of the test compound in which the well turns blue [1]: 10 µM
wt TIR: minimum concentration of the test compound in which the well turns blue [2]: >100 µM

Cc1ccc(Cl)cc1-c1ccc2[nH]cc(CC(=O)O)c2c1 [MK-309, 2-(5-(5-chloro-2-methylphenyl)-1H-indol-3-yl)acetic acid]
mut TIR: minimum concentration of the test compound in which the well turns blue [1]: 10 µM
wt TIR: minimum concentration of the test compound in which the well turns blue [2]: 100 µM

COc1ccc(-c2ccc3[nH]cc(CC(=O)O)c3c2)cc1C [MK-214, 2-(5-(4-methoxy-3-methylphenyl)-1H-indol-3-yl)acetic acid]
mut TIR: minimum concentration of the test compound in which the well turns blue [1]: 10 µM
wt TIR: minimum concentration of the test compound in which the well turns blue [2]: 100 µM

CCCCOc1ccc2[nH]cc(CC(=O)O)c2c1 [RY-215, 2-(5-(butyloxy)-1H-indol-3-yl)acetic acid, reference compound]
mut TIR: minimum concentration of the test compound in which the well turns blue [1]: 0.1 µM
wt TIR: minimum concentration of the test compound in which the well turns blue [2]: 10 µM

O=C(O)Cc1c[nH]c2ccccc12 [Indole-3-acetic acid, indole-3-acetic acid, reference compound]
binding affinity of the mutant auxin receptor (TIR1 F79G) relative to that of the wild type auxin receptor ([1]; ratio mutant / wild type, from Table 1): less than 1/1000
mut TIR: minimum concentration of the test compound in which the well turns blue [1]: >100 µM
wt TIR: minimum concentration of the test compound in which the well turns blue [2]: 0.1 µM

CCC(C)COc1ccc2[nH]cc(CC(=O)O)c2c1 (centres unmarked) [MK-322, 2-(5-(2-methylbutoxy)-1H-indol-3-yl)acetic acid]
mut TIR: minimum concentration of the test compound in which the well turns blue [1]: 0.1 µM
wt TIR: minimum concentration of the test compound in which the well turns blue [2]: 10 µM
